Values joined by “and” are separate entries in the source; they are usually repeats but may differ in a detail not shown here. Equal entries are not always repeated. Where two headings read alike, the source gives them in different places. Blank lines part the entries; values can stand above or below the molecule they belong to.
Columns and labels:
Monoamine oxidase A = target: T1, Monoamine oxidase A (Homo sapiens, UniProt P21397); conditions: cited from earlier work
T1 sequence (P21397 1-527): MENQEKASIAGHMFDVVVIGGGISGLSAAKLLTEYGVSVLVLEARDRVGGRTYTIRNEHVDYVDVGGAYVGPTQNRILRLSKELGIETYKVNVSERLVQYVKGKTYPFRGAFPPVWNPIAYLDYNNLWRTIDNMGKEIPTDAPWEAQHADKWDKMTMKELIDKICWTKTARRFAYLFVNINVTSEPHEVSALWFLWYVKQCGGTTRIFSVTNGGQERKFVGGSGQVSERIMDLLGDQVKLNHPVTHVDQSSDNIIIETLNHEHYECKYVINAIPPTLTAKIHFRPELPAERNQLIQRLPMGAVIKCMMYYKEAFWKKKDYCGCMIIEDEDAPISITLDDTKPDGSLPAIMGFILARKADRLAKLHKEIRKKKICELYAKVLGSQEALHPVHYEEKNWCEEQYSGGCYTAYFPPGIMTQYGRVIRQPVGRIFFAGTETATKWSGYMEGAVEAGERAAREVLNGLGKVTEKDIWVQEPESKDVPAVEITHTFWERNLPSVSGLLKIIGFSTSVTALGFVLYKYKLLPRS

Monoamine oxidase B = target: T2, Monoamine oxidase B (Homo sapiens, UniProt P27338); conditions: cited from earlier work
T2 sequence (P27338 2-520): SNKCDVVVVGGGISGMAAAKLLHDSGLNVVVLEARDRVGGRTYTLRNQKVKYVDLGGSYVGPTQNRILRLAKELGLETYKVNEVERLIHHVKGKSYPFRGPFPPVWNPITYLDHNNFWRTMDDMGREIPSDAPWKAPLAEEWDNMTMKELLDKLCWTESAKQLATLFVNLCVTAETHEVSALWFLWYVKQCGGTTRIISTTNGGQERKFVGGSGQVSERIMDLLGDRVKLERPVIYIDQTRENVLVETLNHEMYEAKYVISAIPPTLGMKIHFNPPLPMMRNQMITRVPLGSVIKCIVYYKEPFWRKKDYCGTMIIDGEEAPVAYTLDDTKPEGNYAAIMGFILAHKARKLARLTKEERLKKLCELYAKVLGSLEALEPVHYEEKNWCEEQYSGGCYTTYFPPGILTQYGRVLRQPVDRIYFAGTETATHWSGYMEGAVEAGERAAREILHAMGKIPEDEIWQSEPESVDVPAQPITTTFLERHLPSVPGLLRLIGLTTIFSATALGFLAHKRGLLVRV

MAO-B vs MAO-A = assay: Selectivity index of ChEMBl reference structures (MAO-A and MAO-B IC50); assay type: biochemical, human; conditions: for Selectivity: selectivity index calculated from ChEMBl IC50 values of MAO-A and MAO-B
[1] = parameters: method as in literature (reference not given); conditions: ref literature (reference not given); cited from earlier work
[2] = PAMPA-BBB parallel artificial membrane permeability assay; conditions: for Papp at 4 h, 100 µM: PAMPA; for Experimental log Pe value / Membrane retention: PAMPA-BBB, pH 7.4, 37°C, 4 hours, n=9, ± SD; for Experimental log Pe value: Pe in cm/s
[3] = Octanol/water partitioning, shake-flask method (log P, log D^pH); conditions: n-octanol/Britton-Robinson buffer
MAO-B = conditions: cited from earlier work; for MAO-B selectivity index: MAO-B over MAO-A; for IC50: in vitro
[4] = PAMPA, pH 7.4

SMILES: c1ccc2c(c1)OCC(C1=NCCN1)O2 (stereo not shown) [CHEMBL10316, IDAZOXAN]
- pChEMBL Value, Type A (Monoamine oxidase A; MAO-A, ref ChEMBL database): 6
- pChEMBL Value, MAO A (Monoamine oxidase A; human enzyme, ref ChEMBl database): 6
- IC50 (Monoamine oxidase A; read-out: Standard Value (IC50), MAO A, human enzyme, ref ChEMBl database): 1000 nM
- IC50 (Monoamine oxidase A; read-out: Standard Value (IC50), Type A, MAO-A, ref ChEMBL database): 1000 nM
- pChEMBL Value, Type B (Monoamine oxidase B; MAO-B, ref ChEMBL database): 6
- IC50 (Monoamine oxidase B; MAO-B, ref ChEMBL database, read-out: Standard Value (IC50), Type B): 1000 nM
- pChEMBL Value, MAO B (Monoamine oxidase B; human enzyme, lines marked B, ref ChEMBl database): 6
- IC50 (Monoamine oxidase B; human enzyme, lines marked B, ref ChEMBl database, read-out: Standard Value (IC50), MAO B): 1000 nM
- Selectivity index (MAO-B vs MAO-A; MAO-A IC50 / MAO-B IC50 of ChEMBL reference structures): 1

SMILES: COc1ccc(C2CC(c3ccc(O)cc3)=NN2C(C)=O)cc1 (stereo not shown) [CHEMBL65761]
- Selectivity (MAO-B vs MAO-A): 0.00125

SMILES: O=C1/C(=C/c2ccc(O)cc2)COc2cc(O)cc(O)c21 [CHEMBL1077616]
- IC50 (Monoamine oxidase B; human enzyme, closest reference structures, ref ChEMBl database, read-out: IC50 values (MAO-B)): 8710 nM

SMILES: O=C1/C(=C/c2ccc(O)c(O)c2)COc2ccccc21 [CHEMBL1766558]
- Selectivity (MAO-B vs MAO-A): 33.7319 and 33.73

SMILES: O=C(Nc1ccc(O)c(O)c1)c1cc(=O)c2ccccc2o1 [CHEMBL1814057]
- Selectivity (MAO-B vs MAO-A): 0.07

SMILES: O=C(Nc1ccc(O)cc1)c1coc2ccccc2c1=O [CHEMBL1814064]
- Selectivity (MAO-B vs MAO-A): 74.375 and 74.38

SMILES: O=C(Nc1ccc(O)c(O)c1)c1coc2ccccc2c1=O [CHEMBL1814066]
- Selectivity (MAO-B vs MAO-A): 2.69

SMILES: O=C1/C(=C/c2ccc(N3CCOCC3)cc2)Oc2cc(O)cc(O)c21 [CHEMBL1814450]
- Selectivity (MAO-B vs MAO-A): 3.176

SMILES: O=c1c2ccccc2sc2cc(O)cc(O)c12 [CHEMBL2018439, 1,3-Dihydroxythioxanthone]
- Selectivity (MAO-B vs MAO-A): 0.9333

SMILES: CN(C)c1ccc(/C=C2\Oc3cc(O)cc(O)c3C2=O)cc1 [CHEMBL2288402]
- Selectivity (MAO-B vs MAO-A): 0.04 and 0.03923

SMILES: O=C1/C(=C/c2ccc(N3CCCC3)cc2)Oc2cc(O)cc(O)c21 [CHEMBL3786282]
- Selectivity (MAO-B vs MAO-A): 1.1688

SMILES: CCN(CC)c1ccc(/C=C2\Oc3cc(O)cc(O)c3C2=O)cc1 [CHEMBL3786747]
- Selectivity (MAO-B vs MAO-A): 0.3443

SMILES: CCN(C)c1ccc(/C=C2\Oc3cc(O)cc(O)c3C2=O)cc1 [CHEMBL3786785]
- Selectivity (MAO-B vs MAO-A): 0.03453

SMILES: O=C1/C(=C/c2ccc(O)cc2)Cc2cc(O)ccc21 [CHEMBL3890408]
- Selectivity (MAO-B vs MAO-A): 0.6095 and 0.61

SMILES: O=C1/C(=C/c2cccc(O)c2)Cc2cc(O)ccc21 [CHEMBL3891485]
- Selectivity (MAO-B vs MAO-A): 1.242 and 1.24

SMILES: N#Cc1ccc(/C=C2\Cc3cc(O)ccc3C2=O)cc1 [CHEMBL3900500]
- Selectivity (MAO-B vs MAO-A): 6.582

SMILES: O=C1/C(=C/c2ccc(Cl)cc2)Cc2cc(O)ccc21 [CHEMBL3907033]
- Selectivity (MAO-B vs MAO-A): 57

SMILES: COc1cccc(/C=C2\Cc3cc(O)ccc3C2=O)c1 [CHEMBL3918471]
- Selectivity (MAO-B vs MAO-A): 2.527

SMILES: O=C1/C(=C/c2cccc(Cl)c2)Cc2cc(O)ccc21 [CHEMBL3924440]
- Selectivity (MAO-B vs MAO-A): 5.233

SMILES: O=C1/C(=C/c2ccc(F)cc2)Cc2cc(O)ccc21 [CHEMBL3933900]
- Selectivity (MAO-B vs MAO-A): 14.4468

SMILES: O=C1/C(=C/c2ccc(Br)cc2)Cc2cc(O)ccc21 [CHEMBL3950873]
- Selectivity (MAO-B vs MAO-A): 198.113

SMILES: O=C1/C(=C/c2cccc(F)c2)Cc2cc(O)ccc21 [CHEMBL3965044]
- Selectivity (MAO-B vs MAO-A): 5.452

SMILES: N#Cc1cccc(/C=C2\Cc3cc(O)ccc3C2=O)c1 [CHEMBL3971638]
- Selectivity (MAO-B vs MAO-A): 3.415

SMILES: O=C1/C(=C/c2cccc(Br)c2)Cc2cc(O)ccc21 [CHEMBL3979091]
- Selectivity (MAO-B vs MAO-A): 10.0769

SMILES: Cc1ccc2occ(/C=N/c3cc(Cl)ccc3O)c(=O)c2c1 [CHEMBL4073506]
- Selectivity (MAO-B vs MAO-A): 3.391

SMILES: O=c1c(/C=N/c2cc(F)ccc2O)coc2ccccc12 [CHEMBL4082043]
- Selectivity (MAO-B vs MAO-A): 2.612

SMILES: Cc1ccc(O)c(/N=C/c2coc3ccc(C)cc3c2=O)c1 [CHEMBL4082612]
- Selectivity (MAO-B vs MAO-A): 6.275

SMILES: O=c1c(/C=N/c2ccc(Cl)cc2O)coc2ccccc12 [CHEMBL4086270]
- Selectivity (MAO-B vs MAO-A): 0.7978

SMILES: Cc1ccc2occ(/C=N/c3cc(F)ccc3O)c(=O)c2c1 [CHEMBL4090445]
- Selectivity (MAO-B vs MAO-A): 1.637

SMILES: Cc1ccc2occ(/C=N/c3ccc(Cl)cc3O)c(=O)c2c1 [CHEMBL4099570]
- Selectivity (MAO-B vs MAO-A): 2.863

SMILES: Cc1ccc(O)c(/N=C/c2coc3ccccc3c2=O)c1 [CHEMBL4100473]
- Selectivity (MAO-B vs MAO-A): 2.956

- Papp at 4 h, 100 µM [2]: 3.24 ×10⁻⁶ cm/s
SMILES: Cn1c(=O)c2c(ncn2C)n(C)c1=O [Caffeine]
- log BB literature value [1]: 0.01

- logD at 1 h ([3]; pH 5): 2.48 ± 0.02
- logP at 1 h ([3]; pH 5): 2.48
- logD at 1 h ([3]; pH 7.4): 2.21 ± 0.04
- Papp at 4 h, 100 µM ([2]; pH 7.4): 2.5 ×10⁻⁶ cm/s
- Experimental log Pe value [2]: -5.60 and -5.60 ± 0.07
- Membrane retention [2]: 16.49% and 16.49 ± 1.38%
- BBB category from Pe ([2]; categorization of Di et al.): uncertain
- BBB category from log Pe ([2]; cut-off of Könczöl et al.): well-permeating
- BBB category from log Pe ([2]; cut-off of Mensch et al.): BBB-
SMILES: COc1cc(-c2coc3cc(O)ccc3c2=O)ccc1O [Calycosin D]

SMILES: COc1ccc(-c2coc3cc(O)ccc3c2=O)cc1O [Calycosin]
- MAO-B selectivity index (MAO-B): 293.8
- IC50 (MAO-B): 240 nM

- logD at 1 h ([3]; pH 5): 2.83 ± 0.05
- logP at 1 h ([3]; pH 5): 2.83
- logD at 1 h ([3]; pH 7.4): 2.73 ± 0.07
- Papp at 4 h, 100 µM ([2]; pH 7.4): 10 ×10⁻⁶ cm/s
- Experimental log Pe value [2]: -5.00 ± 0.11
- Membrane retention [2]: 27.25% and 27.25 ± 6.43%
SMILES: COc1ccc(-c2coc3cc(O)ccc3c2=O)cc1 [Formononetin]

- Experimental log Pe value ([4]; 4 h, 100 µM): -4.48
- Experimental log Pe value [4]: -4.48 ± 0.08
- Measured log D^7.4 ± SE ([3]; pH 7.4, 25°C): 2.49 ± 0.02
- Experimental log P ([3]; unionized form (pH 5 for isoflavones and isoflavanones)): 2.49
SMILES: Oc1ccc2c(c1)OC[C@H]1c3cc4c(cc3O[C@@H]21)OCO4 [Maackiain]
- MAO-B selectivity index (MAO-B): 126.2
- Type of MAO-B inhibition (MAO-B): reversible
- IC50 (MAO-B): 680 nM

SMILES: COc1ccc2c(c1)O[C@H]1c3ccc(O)cc3OC[C@@H]21 [Medicarpin]
- Experimental log P (pH 5): 3.03
- Measured log D^7.4 ± SE (pH 7.4): 3.03 ± 0.02
- IC50 (MAO-B): 300 nM
- Experimental log Pe value ([4]; 4 h, 100 µM): -4.45
- Experimental log Pe value [4]: -4.45 ± 0.04

- logD at 1 h ([3]; pH 5): 3.03 ± 0.02
- logP at 1 h ([3]; pH 5): 3.03
- logD at 1 h ([3]; pH 7.4): 2.49 ± 0.04
- Papp at 4 h, 100 µM ([2]; pH 7.4): 18.6 ×10⁻⁶ cm/s
- Experimental log Pe value [2]: -4.73 ± 0.04
- Membrane retention [2]: 32.51% and 31.51 ± 4.04%
SMILES: COc1cc2c(cc1C1COc3cc(O)ccc3C1=O)OCO2 (stereo not shown) [Onogenin]

- Papp at 4 h, 100 µM [2]: 15.5 ×10⁻⁶ cm/s
SMILES: C=C[C@H]1C[N@@]2CC[C@H]1C[C@H]2[C@H](O)c1ccnc2ccc(OC)cc12 [Quinine]
- log BB literature value [1]: 0.60

SMILES: C[C@@H]1O[C@@H](OC[C@H]2O[C@@H](Oc3c(-c4ccc(O)c(O)c4)oc4cc(O)cc(O)c4c3=O)[C@H](O)[C@@H](O)[C@@H]2O)[C@H](O)[C@H](O)[C@H]1O [Rutin]
- log BB literature value [1]: -1.22
- Papp at 4 h, 100 µM [2]: 0.00776 ×10⁻⁶ cm/s

- Papp at 4 h, 100 µM [2]: 0.00851 ×10⁻⁶ cm/s
SMILES: O=C(O)c1ccccc1O [Salicylic acid]
- log BB literature value [1]: -1.10

- logD at 1 h ([3]; pH 5): 3.04 ± 0.01
- logP at 1 h ([3]; pH 5): 3.04
- logD at 1 h ([3]; pH 7.4): 2.75 ± 0.03
- Papp at 4 h, 100 µM ([2]; pH 7.4): 17.4 ×10⁻⁶ cm/s
- Experimental log Pe value [2]: -4.76 ± 0.07
- Membrane retention [2]: 33.66% and 33.66 ± 4.13%
SMILES: COc1ccc(C2COc3cc(O)ccc3C2=O)c(OC)c1 (stereo not shown) [Sativanone]

— paper PMC8929578, “In vitro and in silico evaluation of Ononis isoflavonoids as molecules targeting the central nervous system” (PLoS ONE, 2022)
